One assay concerns rhabdomyosarcoma cells. Kind of assay: Soft-agar anchorage-independent growth, rhabdomyosarcoma cells expressing E9R. The assay is classed as cell-based. The note with it: E9R expression. From the text: (§1) Plasmids that express E9R fused to enhanced green fluorescent protein (EGFP) were transfected into either Ewing's Sarcoma (TC71) or rhabdomyosarcoma (RP) cells and placed in soft-agar for anchorage-independent growth. The pGE9R plasmid diffusely expressed E9R while the pGCE9R plasmid contained a nuclear export sequence to prevent expressed peptide from entering the nucleus. The transfected cells were placed in soft agar culture for 2 weeks and stained with MTT. When E9R was diffusely expressed, including the nucleus, ESFT (containing EWS-FLI1) soft-agar colony growth was suppressed.
Since the Antp peptides added to media would not remain in the cells for 2 weeks during soft-agar colony growth, expression peptides were used to provide continuous exposure to peptide. A pair of expression plasmids with cloning sites downstream of the enhanced green fluorescent protein (EGFP) was obtained; the pG plasmid contained no localizing sequence and was expressed throughout the cells (FIG. 9, left panels). The pGC plasmids contained a nuclear export sequence that blocked peptide transport into the nucleus (FIG. 9, right panels). The E9R DNA sequence was synthesized and the hybridized oligodeoxynucleotides were inserted into the cloning site downstream of either EGFP or EGFP and nuclear export sequence.

In assay [1] the target is RHA binding to EWS-FLI1. Kind of assay: Solution immunoprecipitation of GST-RHA with recombinant EWS-FLI1. Also noted: species or system human. On the procedure: E9RP is the peptide region of RHA (E9R; SEQ ID NO: 29) fused to the Penetratin peptide (from the Antennapedia homeodomain; SEQ ID NO: 34). Immunoprecipitation of GST-RHA using recombinant EWS-FLI1 bound to a FLI1 antibody. […] E9RP is the sequence of aa 823-832 of human RHA that were synthesized.
(§2) In FIG. 13A, recombinant EWS-FLI1 was treated with NSC635437 for 30 minutes. GST-RHA (630-1020) was added and the complexes were then precipitated with antibody to EWS-FLI1 and Protein G beads. Resolved complexes showing the immunoprecipitated complex control without compound are in lanes 3 (0.1% DMSO) and 5 (0.01% DMSO). […] ESFT TC32 (◯) and neuroblastoma SK-N-AS (▪) were grown for 72 hours in the continuous presence of NSC635437. Cells were incubated in MTT reagent for 4 hours and the dried precipitate was dissolved isopropanol and the absorbance read at 570 nm. Each cell line was standardized to the growth of the DMSO control.
Protein lysates and immunoprecipitations were performed as previously published (Uren et al (2005)). Recombinant GST-RHA (647-1075) was prepared from crude bacterial extracts without further purification.
Reagents were developed to block RHA binding to EWS-FLI1 since RHA is necessary for optimal EWS-FLI1 activity. The E9R peptide corresponds to amino acids 823 to 832, located in the proximal HA2 region of RHA (FIG. 29A). A cell-free protein interaction assay was developed to test whether E9R peptide inhibits RHA binding to EWS-FLI1. […] It was determined whether disrupted EWS-FLI1/RHA binding inhibited cell growth.

For the next assay, the system named is EWS-FLI1. Nature of the assay: SPR displacement assay of E9R from EWS-FLI1. The assay is classed as binding. From the text:
FIG. 31 provides data showing a small molecule binding to EWS-FLI1 and displaces E9R from EWS-FLI1. […] Aromatic functionalization produced YK-4-279 a para-methoxy derivative of NSC635437. […] A FLI1 antibody complexed EWS-FLI1 and precipitated it from the solution.
An aromatic optimization strategy was used to design analogs to improve upon the activity of NSC635437.

For the next assay, the system named is TC71 (ESFT) cells. Nature of the assay: Soft-agar anchorage-independent growth, TC71 expressing E9R. It counts as cell-based.
Excerpt: as §1
(§3) FIG. 30 provides data to show E9R peptide prevents EWS-FLI1 binding to RHA with specific detrimental effects upon ESFT growth and transformation. […] Scale bar equals 20 μm. […] Only expression of EGFP-E9R in TC71 reduced anchorage independent growth. […] Scale bar equals 20 μm.
Since the Antp peptides added to media would not remain in the cells for 2 weeks during soft-agar colony growth, expression peptides were used to provide continuous exposure to peptide. A pair of expression plasmids with cloning sites downstream of the enhanced green fluorescent protein (EGFP) was obtained; the pG plasmid contained no localizing sequence and was expressed throughout the cells (FIG. 9, left panels). The pGC plasmids contained a nuclear export sequence that blocked peptide transport into the nucleus (FIG. 9, right panels). […]

The test system of assay [2] is SKNAS (neuroblastoma) cells. Kind of assay: Soft-agar anchorage-independent growth, SKNAS expressing E9R. It counts as cell-based. Particulars: expressed E9R.
Excerpt: as §3

For another assay, the system named is ESFT cells TC71. Nature of the assay: Xenografts of TC71 cells transfected with E9R expression plasmids. It counts as in vivo, mice. The note with it: pGE9R vs pGE9R-D5A, 26 days. The procedure: ESFT cells TC71 were transfected with pGE9R (wild-type sequence peptide (SEQ ID NO: 29)) or pGE9R-D5A (control, mutated peptide; D5A (SEQ ID NO: 31)). In FIG. 10A, fluorescent micrographs of transfected cells after 4 days in culture are presented. […] Bar equals 300 microns. In FIG. 10B, each group contains six mice. Mice legs were measured every 2-3 days. Tumors appeared in 2 weeks. The experiment was terminated after 26 days when the largest tumor caused the mouse to limp. Tumor volumes were calculated according to (D×d2/6)×π formula, where large diameter of tumor mass is D and small diameter is d. 2-way ANOVA analysis, followed by Bonferroni correction for multiple variables, the difference in the two growth curves was highly significant, p=0.016.
The ability of the E9R peptide sequence to prevent ESFT tumorigenesis in a pilot murine xenograft experiment was determined. As a control peptide, the same mutation that prevented wild-type RHA from binding to EWS-FLI1 (D827A, noted in the 10-mer peptide as E9R-D5A) was created. ESFT cells were transfected with either pGE9R or pGE9R-D5A by electroporation. A transfection efficiency of greater than 80% using fluorescent microscopy (FIG. 10A) was observed. […] Every two to three days, each animal's thigh was measured in three dimensions, and tumor volumes were calculated. […]

Assay [3] deals with ESFT cell lines TC32 (ESFT 1) and 5838 (ESFT 2). Nature of the assay: Peptide growth inhibition, ESFT cell lines 1 and 2. The assay is classed as cell-based. The note with it: 10 μM on days 0, 3 and 5; seven days. From the text:
(§4) FIGS. 8A-E show E9RP inhibits ESFT cell growth. In FIGS. 8A and 8B, E9RP is the peptide region of RHA (SEQ ID NO:29) fused to the Penetratin peptide (from the Antennapedia homeodomain; SEQ ID NO:34) and contains amino-terminal fluorescein (FITC). […] Neither lipids nor electricity were used for transduction of peptides into cells. Confocal microscopy identified peptide throughout cells with nuclear uptake. Nuclear uptake was confirmed by DAPI staining. […] Cell lines were placed in 96-well plates with either vehicle alone (●), or E9RP (10 μM) on days 0, 3 and 5 (▴). No lipid or other transfection method was utilized. This represents two experiments with similar results. FIG. 8D depicts dose response of ESFT 1 to either wild-type or single amino-acid mutant peptides. (▪) wild-type E9RP, (E9R (SEQ ID NO:29) fused to the Penetratin peptide (SEQ ID NO:34)), (▾)(E9RP (P2A peptide (SEQ ID NO:30) fused to the Penetratin peptide (SEQ ID NO:34)), (▴)E9RP (D5A peptide (SEQ ID NO:31) fused to the Penetratin peptide (SEQ ID NO:34)). Growth normalized to treating cells with the 16 aa Antp sequence alone (SEQ ID NO:34). FIG. 8E is a comparison of wild-type versus mutant peptides in ESFT and NB cells.

The test system of the next assay is TC32 cells. Nature of the assay: Monolayer cell growth (MTT or WST), TC32. Particulars: TC32 monolayer, 10 μM. It counts as cell-based. On the procedure:
as §2, §3
FIG. 33 provides data showing YK-4-279 is potent and specific inhibitor of ESFT. […] Cell number was measured by MTT or WST reduction after seven days in culture. […] FIG. 33D cell lines expressing EWS-FLI1 compared to non-EWS-FLI1 malignant cell lines following 3 days in culture to establish the IC50 using WST assay. […] Graph plots level of fluorescence in treated divided by untreated lysate. […] Scale bar equals 200 μm.

The target of the next assay is CBP (aa 1680-1890) (Homo sapiens, UniProt Q92793). Nature of the assay: Competitive ELISA, RHA binding to CBP. Particulars: RHA 4 nM, E9RP 0.01-30 μM. On the procedure: (§5) E9RP is the peptide region of RHA (E9R; SEQ ID NO: 29) fused to the Penetratin peptide (from the Antennapedia homeodomain; SEQ ID NO: 34). In FIG. 5A, E9RP was used in a competition experiment for blocking binding of RHA to EWS-FLI1. Wells were coated with 500 ng EWS-FLI1. RHA (4 nM) was added on to wells in the presence of E9RP (0.01-30 μM). In FIG. 5B, wells were coated with 500 ng/well recombinant CBP. RHA (4 nM) was added to wells with E9RP (0.01-30 μM).
(§6) E9RP was evaluated for the ability to block RHA from binding to EWS-FLI1 using both competitive ELISA assay and solution immunoprecipitation assays. In addition, specificity of interaction was evaluated by disrupting EWS-FLI1 binding from RHA without interfering with other RHA binding proteins. Creb-binding protein (CBP, p300) is critical to cellular basal transcription, so it was determined if a peptide that would disrupt EWS-FLI1 binding from RHA could also disrupt CBP binding.
(In general: ELISA stands for enzyme-linked immunosorbent assay.)

Assay [4] has as its system neuroblastoma SKNAS cells. Nature of the assay: Monolayer cell growth, neuroblastoma. The assay is classed as cell-based. Particulars: E9RP 10 μM; seven days.
Excerpt: as §4, §2, §3

Assay [5] deals with RHA binding to EWS-FLI1. Kind of assay: Competitive ELISA, RHA binding to EWS-FLI1. The note with it: RHA 4 nM, E9RP 0.01-30 μM; read-out: IC50, prevention of RHA binding to EWS-FLI1. The procedure: as §5, §6
Assay [6] deals with two additional sarcoma cell lines, lacking EWS-FLI1. Kind of assay: Peptide growth inhibition, additional sarcoma cell lines. The assay is classed as cell-based. Particulars: data not shown.

Residues, ends and D or L forms follow the SMILES beside them. *: point of attachment. FITC = O=C1OC2(c3ccc(O)cc3Oc3cc(O)ccc32)c2ccc(NC(=S)*)cc21

The IC50 is the concentration that inhibits the measured activity by half.

Chain of CBP (aa 1680-1890) (Q92793 1680-1890): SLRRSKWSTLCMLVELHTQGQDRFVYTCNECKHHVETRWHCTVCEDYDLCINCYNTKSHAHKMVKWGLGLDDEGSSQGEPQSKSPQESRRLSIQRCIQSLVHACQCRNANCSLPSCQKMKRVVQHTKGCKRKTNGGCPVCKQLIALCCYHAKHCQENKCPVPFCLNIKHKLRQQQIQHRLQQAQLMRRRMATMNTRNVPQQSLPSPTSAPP

For the molecule “PPPLDAVIEA [E9R, peptide corresponding to aa 823-832 of human RHA]”, the entries for the “soft agar colony growth” value in the assay with rhabdomyosarcoma cells and with TC71 (ESFT) cells (E9R expressed throughout cells (pGE9R)) were “not reduced” and “suppressed”, respectively. Moreover, the “concentration giving decreased association to 50%” value on RHA binding to EWS-FLI1 [1] (GST-RHA (647-1075) and full-length EWS-FLI1) amounted to 0.1 µM. Also, the “binding of E9R to EWS-FLI1” value in the assay with EWS-FLI1 (32 μM E9R alone) was 13 R.U; with EWS-FLI1 (64 μM E9R alone) it was 17 R.U. Further, in the assay on TC71 (ESFT) cells (E9R expressed as EGFP fusion throughout the cell), the “reduction of TC71 colony formation” value is reported as 95%. In addition, the anchorage-independent growth result in assay [2] is on record as “not affected”. Moreover, the “xenograft growth of cells expressing peptide” value in the assay with ESFT cells TC71 is “reduces ESFT xenografts growth”.

Consider `CC[C@H](C)[C@H](NC(=O)[C@H](CCCCN)NC(=O)[C@@H](NC(=O)[C@H](CCC(N)=O)NC(=O)[C@H](CCCNC(=N)N)NC(=S)Nc1ccc2c(c1)C(=O)OC21c2ccc(O)cc2Oc2cc(O)ccc21)[C@@H](C)CC)C(=O)N[C@@H](Cc1c[nH]c2ccccc12)C(=O)N[C@@H](Cc1ccccc1)C(=O)N[C@@H](CCC(N)=O)C(=O)N[C@@H](CC(N)=O)C(=O)N[C@@H](CCCNC(=N)N)C(=O)N[C@@H](CCCNC(=N)N)C(=O)N[C@@H](CCSC)C(=O)N[C@@H](CCCCN)C(=O)N[C@@H](Cc1c[nH]c2ccccc12)C(=O)N[C@@H](CCCCN)C(=O)N[C@@H](CCCCN)C(=O)N1CCC[C@H]1C(=O)N1CCC[C@H]1C(=O)N1CCC[C@H]1C(=O)N[C@@H](CC(C)C)C(=O)N[C@@H](CC(=O)O)C(=O)N[C@@H](C)C(=O)N[C@H](C(=O)N[C@H](C(=O)N[C@@H](CCC(=O)O)C(=O)N[C@@H](C)C(=O)O)[C@@H](C)CC)C(C)C` [E9RP] ({FITC}-RQIKIWFQNRRMKWKKPPPLDAVIEA-OH; C-terminus assumed), for which the cell growth result is “inhibited the growth” in [3], “did not affect the growth” in assay [4] and “not growth inhibited” in assay [6]. For the same molecule, the IC50 on RHA binding to EWS-FLI1 [1] (GST-RHA (630-1020), read-out: IC50 to prevent complex formation) was roughly 100 nM; at RHA binding to EWS-FLI1 [5], roughly 200 nM. Moreover, in the assay with TC32 cells, the “ESFT cell growth with fluorescein conjugated peptides” value is “significantly reduced ESFT cell growth”. Besides, the “effect upon the binding of CBP” value at CBP (aa 1680-1890) is “lacking a dose-dependent effect”.
